Measurements reported in patent US20200187499A1, “SUBSTITUTED BENZYL-4-AMINOPICOLINIC ESTERS AND PYRIMIDINO-4-CARBOXYLIC ESTERS, METHODS FOR THE PRODUCTION THEREOF, AND USE THEREOF AS HERBICIDES AND PLANT GROWTH REGULATORS” (Bayer CropScience Aktiengesellschaft, priority 2017, published 2020).

Legend:
Type in all cases: in vivo
AMARE [1] = test: Pre-emergence herbicidal action; conditions: 320 g/ha, scored after 3 weeks
From the text: (§1) Seeds of monocotyledonous and dicotyledonous weed plants and crop plants are laid out in sandy loam soil in wood-fiber pots and covered with soil. The compounds of the invention, formulated in the form of wettable powders (WP) or as emulsion concentrates (EC), are then applied to the surface of the covering soil in the form of an aqueous suspension or emulsion at a water application rate equating to 600 to 800 I/ha, with addition of 0.2% wetting agent. After the treatment, the pots are placed in a greenhouse and kept under good growth conditions for the trial plants. The damage to the test plants is scored visually after a test period of 3 weeks by comparison with untreated controls (herbicidal activity in percent (%): 100% activity=the plants have died, 0% activity=like control plants).
(§2) At the same time, inventive compounds leave Gramineae crops such as barley, wheat, rye, millet/sorghum, corn or rice virtually undamaged when applied pre-emergence, even at high active ingredient dosages. In addition, some substances are also harmless to dicotyledonous crops such as soya, cotton, oilseed rape, sugar beet or potatoes. […] The tables below illustrate, in an exemplary manner, the pre-emergence herbicidal action of the compounds according to the invention, the herbicidal activity being stated in percent.

ECHCG [2] = test: Pre-emergence herbicidal action; conditions: 320 g/ha, scored after 3 weeks
From the text: as §1, §2

ABUTH [3] = test: Post-emergence herbicidal action; conditions: Table 5, post-emergence (PO), 320 g/ha, assessed after about 3 weeks
Description: (§3) Seeds of monocotyledonous and dicotyledonous weed and crop plants are laid out in sandy loam soil in wood-fiber pots, covered with soil and cultivated in a greenhouse under good growth conditions. 2 to 3 weeks after sowing, the test plants are treated at the one-leaf stage. The compounds of the invention, formulated in the form of wettable powders (WP) or as emulsion concentrates (EC), are then sprayed onto the green parts of the plants in the form of an aqueous suspension or emulsion at a water application rate equating to 600 to 800 l/ha, with addition of 0.2% wetting agent. After the test plants have been left to stand in the greenhouse under optimal growth conditions for about 3 weeks, the action of the preparations is assessed visually in comparison to untreated controls (herbicidal action in percent (%): 100% activity=the plants have died, 0% activity=like control plants). […] At the same time, inventive compounds leave Gramineae crops such as barley, wheat, rye, millet/sorghum, corn or rice virtually undamaged when applied post-emergence, even at high active ingredient dosages. In addition, some substances are also harmless to dicotyledonous crops such as soya, cotton, oilseed rape, sugar beet or potatoes. Some of the compounds according to the invention have high selectivity and are therefore suitable for controlling unwanted vegetation in agricultural crops by the post-emergence method. The tables below illustrate, in an exemplary manner, the post-emergence herbicidal action of the compounds according to the invention, the herbicidal activity being stated in percent.

AMARE [4] = test: Post-emergence herbicidal action; conditions: Table 5, post-emergence (PO), 320 g/ha, assessed after about 3 weeks
Description: as §3

ECHCG [5] = test: Post-emergence herbicidal action; conditions: Table 5, post-emergence (PO), 320 g/ha, assessed after about 3 weeks
Description: as §3

PHBPU = test: Post-emergence herbicidal action; conditions: Table 5, post-emergence (PO), 320 g/ha, assessed after about 3 weeks
Description: as §3

POLCO = test: Post-emergence herbicidal action; conditions: Table 5, post-emergence (PO), 320 g/ha, assessed after about 3 weeks
Description: as §3

SETVI [6] = test: Post-emergence herbicidal action; conditions: Table 5, post-emergence (PO), 320 g/ha, assessed after about 3 weeks
Description: as §3

STEME = test: Post-emergence herbicidal action; conditions: Table 5, post-emergence (PO), 320 g/ha, assessed after about 3 weeks
Description: as §3

VIOTR = test: Post-emergence herbicidal action; conditions: Table 5, post-emergence (PO), 320 g/ha, assessed after about 3 weeks
Description: as §3

ABUTH [7] = test: Pre-emergence herbicidal action; conditions: Table 3, pre-emergence (PE), 320 g/ha, scored after 3 weeks
From the text: as §1, §2

ALOMY = test: Pre-emergence herbicidal action; conditions: Table 3, pre-emergence (PE), 320 g/ha, scored after 3 weeks
From the text: as §1, §2

SETVI [8] = test: Pre-emergence herbicidal action; conditions: Table 3, pre-emergence (PE), 320 g/ha, scored after 3 weeks
From the text: as §1, §2

| SMILES | Herbicidal action against AMARE (AMARE [1]; Table 4, pre-emergence (PE)) | Herbicidal action against ECHCG (ECHCG [2]; Table 4, pre-emergence (PE)) | Herbicidal action against ABUTH (ABUTH [3]) | Herbicidal action against AMARE (AMARE [4]) | Herbicidal action against ECHCG (ECHCG [5]) | Herbicidal action against PHBPU (PHBPU) | Herbicidal action against POLCO (POLCO) | Herbicidal action against SETVI (SETVI [6]) | Herbicidal action against STEME (STEME) | Herbicidal action against VIOTR (VIOTR) | Herbicidal action against ABUTH (ABUTH [7]) | Herbicidal action against ALOMY (ALOMY) | Herbicidal action against AMARE (AMARE [1]; Table 3, pre-emergence (PE)) | Herbicidal action against ECHCG (ECHCG [2]; Table 3, pre-emergence (PE)) | Herbicidal action against SETVI (SETVI [8]) |
| --- | --- | --- | --- | --- | --- | --- | --- | --- | --- | --- | --- | --- | --- | --- | --- |
| Nc1cc(-c2ccc3ncsc3c2)nc(C(=O)OCc2cccc(F)c2)c1Cl [Example I-41] | 50% | 90% | 100% | 90% | 100% | 70% | 0% | 100% | 100% | 90% | – | – | – | – | – |
| COc1c(F)ccc(COC(=O)c2nc(-c3ccc4sccc4c3)cc(N)c2Cl)c1F [Example I-22] | – | – | 100% | 100% | 90% | 80% | 90% | 100% | 100% | 80% | 20% | 50% | 100% | 90% | 90% |
| COc1ccc(COC(=O)c2nc(-c3ccc4ccoc4c3)c(F)c(N)c2Cl)c(OC)c1 [Example I-35] | 100% | 40% | 80% | 100% | 90% | 20% | 80% | 100% | 90% | 60% | – | – | – | – | – |
| Nc1cc(-c2ccc3sccc3c2)nc(C(=O)OCc2ccc(Cl)cc2)c1Cl [Example I-19] | – | – | 90% | 100% | 100% | 100% | 0% | 80% | 100% | 80% | 70% | 60% | 100% | 50% | 50% |
| Nc1c(F)c(-c2ccc3sccc3c2)nc(C(=O)OCc2ccc(F)cc2)c1Cl [Example I-29] | – | – | 80% | 100% | 90% | 40% | 90% | 80% | 80% | 50% | 70% | 80% | 100% | 80% | 70% |
| Nc1c(Cl)c(C(=O)OCc2cccc(C(F)(F)F)c2)nc(Cl)c1-c1ccc2sccc2c1 [Example I-21, 3-(trifluoromethyl)benzyl 4-amino-6-chloro-(1-benzothiophen-5-yl)-3-chloropyridine-2-carboxylate] | – | – | 90% | 100% | 90% | 80% | 40% | 90% | 90% | 80% | 50% | 40% | 60% | 100% | 80% |
| Nc1c(F)c(-c2ccc3ccsc3c2)nc(C(=O)OCc2ccc(F)cc2)c1Cl [Example I-53] | 100% | 70% | 80% | 100% | 90% | 0% | 80% | 90% | 100% | 10% | – | – | – | – | – |
